{
  "source": "patent US20010051616A1",
  "about": "“METHOD OF LESSENING THE RISK OF VERTEBRAL FRACTURES” (priority 1995, published 2001)",
  "key": {"[1]": {"test_system": "decrease in stature in osteoporotic post-menopausal women", "conditions": "over three years", "description": "(§1) Postmenopausal women having a “low” lumbar spinal bone mineral density, defined as either a bone mineral density (BMD) of less than or equal to 0.92 g/cm^2 (+ or −0.02 g/cm^2) as measured by Lunar DPX method, or less than or equal to 0.80 g/cm^2 (+ or −0.02 g/cm^2) as measured by the Hologic QDR method are considered to have osteoporosis. This definition corresponds to a BMD of approximately two and one-half standard deviations below the mean BMD of mature pre-menopausal Caucasian women in the United States. Patients are otherwise in good health based on medical history, a physical examination and a laboratory screening evaluation.\n(§2) Data was collected on a total of 881 patients from two study groups (cohorts), following virtually identical protocol design and procedures, except that one study was conducted in the United States, and the other was conducted in Canada, Mexico, Europe, Israel, South America, Australia and New Zealand. Data from the two groups was then pooled. […] Additionally, all patients received dietary evaluation and instruction on calcium intake."}, "[2]": {"test_system": "vertebral deformity in osteoporotic post-menopausal women", "conditions": "after three years", "description": "as §1, §2\n(§3) Assessment of vertebral fracture and vertebral deformity (SDI) was based on measurements from lateral spine x-rays, blinded to sequence. Lateral spine x-rays were taken at baseline, one, two and three years. The process of reading the x-rays involved a computerized entry of measurements taken at each of the vertebrae noted on the x-rays, a process known as digitization. […] A computer mouse with cross-hairs is used to enter the data as X,Y coordinates into a commercially available digitization board and computer software program, which computes the distance between landmarks (vertebral heights) in millimeters."}, "[3]": {"test_system": "vertebral fractures in osteoporotic post-menopausal women", "description": "VERTEBRAL FRACTURES—Calculations of prevalent and incident categorical vertebral fractures were performed by comparing each patient's baseline vertebral heights with a reference population (prevalent fracture) and with their follow-up heigiits (incident fractures). Only data from the true baselines were used to determine prevalent fractures. Any vertebral height ratio more than three standard deviations below its corresponding population reference value was defined as a prevalent vertebral fracture. An incident fracture was defined as greater than or equal to a 20% reduction from baseline vertebral height, with an absolute decrease of at least 4 mm in any vertebral height between baseline and follow-up.\nas §1, §2, §3"}},
  "data": [
    {"smiles": "NCCCC(O)(P(=O)(O)O)P(=O)(O)O", "note": "[alendronate, 4-amino-1-hydroxy-butylidene-1,1-bisphosphonate]", "values": [
      {"measurement": "mean stature lost in patients who sustained at least one vertebral fracture", "setting": "[1]", "result": 5.9, "unit": "mm"},
      {"measurement": "SDI mean change from baseline, women with increased deformity", "setting": "[2]", "result": 0.143},
      {"measurement": "SDI mean change from baseline, overall", "setting": "[2]; all women", "result": 0.041},
      {"measurement": "patients with progression (increase) in vertebral deformity by SDI", "setting": "[2]; p=0.028 by Chi-square test", "result": 33, "unit": "%"},
      {"measurement": "number of vertebral fractures per 100 patients", "setting": "[3]; three years", "result": 4.2},
      {"measurement": "women with a new vertebral fracture", "setting": "[3]; three years of study, 17 of 526 women, oral 5, 10 or 20/5 mg daily pooled, p=0.034 vs placebo", "result": 3.23, "unit": "%"},
      {"measurement": "proportion of patients experiencing two or more fractures among patients with at least one incident vertebral fracture", "setting": "[3]; three years, 3/17", "result": 18, "unit": "%"},
      {"measurement": "mild fractures (end-plate deformity fractures) among women who sustained an incident fracture", "setting": "[3]; three years, 6/17", "result": "6/17 (35.3%)"},
      {"measurement": "severe fractures (crush or wedge fractures) among women who sustained an incident fracture", "setting": "[3]; three years, 11/17", "result": "11/17 (64.7%)"},
      {"measurement": "reduction in vertebral fracture rate per 100 patients compared to placebo", "setting": "[3]; total number of vertebral fractures", "result": "at least 63%"}
    ]}
  ]
}
